We go through one compound from publication PMC8037569, “Neuroprotective Effect of Aurantio-Obtusin, a Putative Vasopressin V1A Receptor Antagonist, on Transient Forebrain Ischemia Mice Model” (International Journal of Molecular Sciences, 2021).

Molecules are shown by their SMILES. “Also recorded” adds a separate entry of the source.

One series has as its target T1, hD3 receptor (Homo sapiens, UniProt P35462).
T1 construct: host or cells: CHO
The series is described as follows: GPCR functional assay: cAMP modulation by HTRF in transfected CHO cells. The conditions noted are these: 100 µM test compound. It is filed as cell-based. In general terms: In TR-FRET formats the signal depends on donor and acceptor labels being close together.

In a further series the target is T2, hNK1R (Homo sapiens, UniProt P25103).
T2 construct: Human endogenous (U373MG cells); host or cells: U373MG
T2 sequence (P25103 whole entry): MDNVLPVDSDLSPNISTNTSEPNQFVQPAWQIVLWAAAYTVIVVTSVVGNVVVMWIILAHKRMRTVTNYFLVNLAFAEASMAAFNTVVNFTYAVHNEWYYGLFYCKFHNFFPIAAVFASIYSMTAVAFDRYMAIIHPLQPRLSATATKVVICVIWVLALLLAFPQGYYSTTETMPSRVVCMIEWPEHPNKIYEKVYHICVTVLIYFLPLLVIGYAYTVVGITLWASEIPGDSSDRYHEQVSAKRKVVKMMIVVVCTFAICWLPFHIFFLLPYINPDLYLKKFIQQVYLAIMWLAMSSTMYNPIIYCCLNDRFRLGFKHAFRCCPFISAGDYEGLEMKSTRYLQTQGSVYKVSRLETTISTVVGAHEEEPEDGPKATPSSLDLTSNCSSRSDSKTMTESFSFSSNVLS
The series is described as follows: GPCR functional assay: intracellular Ca2+ mobilization in U373MG cells. It is filed as cell-based.

Another series concerns the target T3, hV1AR (Homo sapiens, UniProt P37288).
T3 construct: host or cells: CHO
The series is described as follows: GPCR functional assay: intracellular Ca2+ mobilization in transfected CHO cells. It counts as cell-based. Background: Calcium assays in cells follow changes in intracellular calcium, usually with a dye or a luminescent sensor.

The subject of series [1] is C57BL/6 mice. Description: Passive avoidance test after transient forebrain ischemia (BCCAO). It is filed as in vivo, mouse. As to conditions: 10 mg/kg, p.o., once daily, 1 h to 7 days after BCCAO; for Latency time in test trial of passive avoidance test: vs BCCAO group, p < 0.05. As to the method:
(§1) Male C57BL/6 mice (22–26 g, 7 weeks) were purchased from the Orient Co. Ltd., a branch of Charles River Laboratories (Seoul, Korea), and kept in the University Animal Care Unit for 1 week prior to the experiments. The animals were housed five per cage, allowed access to water and food ad libitum; the environment was maintained at a constant temperature (23 ± 1 °C) and humidity (60 ± 10%) under a 12-h light/dark cycle (the lights were on from 07:30 to 19:30 h). Forty mice were divided equally into four groups (sham + vehicle, n = 10; sham + drug, n = 10; bilateral common carotid artery occluded ischemia + vehicle, n = 10; bilateral common carotid artery occluded ischemia + drug, n = 10) for experiment. The treatment and maintenance of the animals were carried out in accordance with the Animal Care and Use Guidelines of Dong-A University, Korea. All in vivo experiments were performed according to the protocols approved by the Institutional Animal Care and Use Committee of Dong-A University (approved protocol numbers: DIACUC-approved-17-20) and were in accordance with the National Institutes of Health guidelines.
C57BL/6 mice were anesthetized with 2.0% isoflurane and 70% nitrous oxide in oxygen and subjected to transient forebrain ischemia. The transient forebrain ischemia was induced by bilateral common carotid artery occlusion (BCCAO) with aneurysm clips for 20 min, and the circulation was restored by removing the clips. Mice that received the same surgical operation without carotid artery clipping served as sham-operated controls. During the surgical procedure, the rectal temperature was maintained at 37 ± 0.5 °C with a heating pad (Biomed S.L., Barcelona, Spain). The regional cerebral blood flow (rCBF) was monitored using laser Doppler flowmetry (Perimed, PF5010, JarFalla, Sweden). […]
Passive avoidance test was conducted 1 h after the last drug administration. […] For the retention trial, the mouse was again placed in the light compartment and the time required to enter the dark compartment was recorded.

The test system of series [2] is C57BL/6 mice. The series is described as follows: Nissl staining, severity of neuronal damage after transient forebrain ischemia (BCCAO). It is filed as in vivo, mouse. As to conditions: 10 mg/kg, p.o., vs BCCAO group, score 0 to 3, n = 6/group. The method, then: as §1
C57BL/6 mice were anesthetized with 2.0% isoflurane and 70% nitrous oxide in oxygen and subjected to transient forebrain ischemia. The transient forebrain ischemia was induced by bilateral common carotid artery occlusion (BCCAO) with aneurysm clips for 20 min, and the circulation was restored by removing the clips. Mice that received the same surgical operation without carotid artery clipping served as sham-operated controls. During the surgical procedure, the rectal temperature was maintained at 37 ± 0.5 °C with a heating pad (Biomed S.L., Barcelona, Spain). The regional cerebral blood flow (rCBF) was monitored using laser Doppler flowmetry (Perimed, PF5010, JarFalla, Sweden). […] After reperfusion, the animals were placed in a warm incubator (32–33 °C) and returned to their home cages. Aurantio-obtusin, which was dissolved in 10% Tween 80 solution, was administered from 1 h to 7 days after BCCAO (10 mg/kg, p.o., once daily).
One day after the test trial of passive avoidance test, mice were anesthetized with Zoletil 50® (10 mg/kg, i.m.) and then perfused transcardially with a 100 mM phosphate buffer (pH 7.4) followed by ice-cold 4% paraformaldehyde. The brains of the mice were removed and post-fixed in a phosphate buffer (50 mM, pH 7.4) containing 4% paraformaldehyde overnight, then immersed in a 30% sucrose solution (in 50 mM phosphate-buffered saline, PBS), and stored at 4 °C until sectioned. The frozen brains were coronally sectioned on a cryostat at 30 μm and then stored in a storage solution (30% ethylene glycol, 30% glycerin, and 20 mM phosphate buffer) at 4 °C. Hippocampal sections were collected based on the mouse brain atlas.
After the sections were mounted onto gelatin-coated slides, they were stained with 0.5% cresyl violet, dehydrated through graded alcohols (70, 80, 90, and 100% × 2), placed in xylene, and covered with a coverslip after the addition of Histomount media. The number of cells in selected regions (medial CA1, mCA1; dorsal CA1, dCA1; CA2; cortex) were determined using a computerized image analysis system (Leica Microsystems AG, Wetzlar, Germany). The cells were counted in six sections by every eight sections interval (total 48 sections) per animal by a person blind to the treatment group, and the average cell count per section was computed. The degree of damage by the Nissl staining after ischemia was semiquantitatively scored from 0 to 3 (0, normal; 1, <30% of the neurons were irreversibly damaged; 2, 30–60% of the neurons were irreversibly damaged; 3, 60–100% of the neurons were irreversibly damaged).

Series [3] concerns angiotensin-converting enzyme (ACE). The arrangement: method as in PMID 18803227. As to conditions: cited from earlier work.
In another series the test system is rat. The arrangement: method as in PMID 31547563. As to conditions: cited from earlier work.

T3 sequence (P37288 whole entry): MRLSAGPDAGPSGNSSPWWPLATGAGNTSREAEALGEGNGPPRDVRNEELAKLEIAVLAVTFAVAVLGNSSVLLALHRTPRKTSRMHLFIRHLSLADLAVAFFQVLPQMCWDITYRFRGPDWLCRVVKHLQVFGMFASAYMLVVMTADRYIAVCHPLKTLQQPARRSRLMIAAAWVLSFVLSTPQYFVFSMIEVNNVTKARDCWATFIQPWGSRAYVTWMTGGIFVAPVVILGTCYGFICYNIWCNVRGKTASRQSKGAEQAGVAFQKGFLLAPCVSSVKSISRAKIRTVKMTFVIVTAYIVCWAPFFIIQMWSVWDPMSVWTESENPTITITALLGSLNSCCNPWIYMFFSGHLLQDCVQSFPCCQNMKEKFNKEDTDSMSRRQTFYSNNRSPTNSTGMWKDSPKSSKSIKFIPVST
T1 sequence (P35462 whole entry): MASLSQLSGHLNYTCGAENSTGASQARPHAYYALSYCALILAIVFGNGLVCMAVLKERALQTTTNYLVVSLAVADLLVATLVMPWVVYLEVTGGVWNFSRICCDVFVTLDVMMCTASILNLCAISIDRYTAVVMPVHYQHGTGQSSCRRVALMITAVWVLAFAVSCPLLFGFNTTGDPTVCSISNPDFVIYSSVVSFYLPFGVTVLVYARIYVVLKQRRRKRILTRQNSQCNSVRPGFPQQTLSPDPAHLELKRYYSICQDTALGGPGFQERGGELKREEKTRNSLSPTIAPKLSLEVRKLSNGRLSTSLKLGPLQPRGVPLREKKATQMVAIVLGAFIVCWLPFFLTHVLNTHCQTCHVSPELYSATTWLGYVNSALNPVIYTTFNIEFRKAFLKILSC

For orientation: inhibition means the drop in the measured response relative to a control, in per cent. For orientation: IC50 means the concentration at which inhibition is half-maximal. Regarding `COc1c(O)cc2c(c1O)C(=O)c1c(cc(C)c(O)c1OC)C2=O` [Aurantio-obtusin, 1,3,7-trihydroxy-2,8-dimethoxy-6-methylanthracene-9,10-dione], the “% Stimulation (agonist effect) of control agonist response, D3 (h)” value on hD3 receptor (control response to 300 nM dopamine) came to 33.00 ± 1.84%. The inhibition at 100 µM on hD3 receptor (CHO, agonist response of 10 nM dopamine, read-out: % Inhibition (antagonist effect) of control agonist response, D3 (h) (converted)) is -2.3%; on hNK1R (U373 MG, read-out: % Inhibition (antagonist effect) of control agonist response, NK1 (h) (converted)), 47.6%; at hV1AR (CHO, 100 µM test compound, control response to 10 nM AVP, read-out: % Inhibition (antagonist effect) of control agonist response, V1A (h) (converted)), 71.8%. Also, the “% Stimulation (agonist effect) of control agonist response, NK1 (h)” value at hNK1R (100 µM test compound, control response to 30 nM [Sar9, Met(O2)11]-SP) was −6.40 ± 0.00%. Moreover, the “% Stimulation (agonist effect) of control agonist response, V1A (h)” value on hV1AR (100 µM test compound, control response to 1 μM AVP) is on record as −33.20 ± 2.69%. Besides, the IC50 at hV1AR (concentrations up to 100 µM, control response to 10 nM AVP, read-out: V1AR antagonist effect IC50) stood at 67.7 ± 2.41 µM. Further, in the series with C57BL/6 mice [1] (n = 8/group), the “Latency time in training trial of passive avoidance test” value is given as “no significant differences”. The “Latency time in test trial of passive avoidance test” value in the series with C57BL/6 mice [1] is “significantly attenuated the reduction of latency time”; in the series on C57BL/6 mice [1] (listed as aurantio-obtusin) it was “attenuated the latency time; also recorded: attenuated that reduction significantly”. Besides, the “Severity of neuronal damage in CA2” value with C57BL/6 mice [2] is given as “not in CA2 region”. The figures for the “Severity of neuronal damage in cortex” value in the series with C57BL/6 mice [2] and with C57BL/6 mice [2] (listed as Aurnatio-obtusin) were “significantly reduced the severity of damage” and “significantly reduced the severity”, respectively. Moreover, the results for the “Severity of neuronal damage in dCA1” value in the series with C57BL/6 mice [2] and with C57BL/6 mice [2] (listed as Aurnatio-obtusin) were “significantly reduced the severity of damage” and “significantly reduced the severity”, respectively. For the same compound, the “Severity of neuronal damage in mCA1” value is given as “significantly reduced the severity of damage” in the series with C57BL/6 mice [2] and “significantly reduced the severity” in the series with C57BL/6 mice [2] (listed as Aurnatio-obtusin). Further, the “Inhibition of ACE activity” value in series [3] is “no activity”. Further, the Dose causing hepatoxicity in the series with rat is given as greater than 40 mg/kg.
